Laboratory results reported in patent publication US8778923B2, “GLP-1 receptor modulators” (Receptos, Inc., priority 2011, dated 2014).
pEC50: −log10 of the molar value.

These compounds were tested against T1, GLP-1R (Homo sapiens, UniProt P43220) (assay: EC20 GLP-1(9-36) PAM cAMP assay: dose response of compound in the presence of fixed concentration of GLP-1(9-36)). Conditions: GLP-1R CRE-bla CHO-K1 cells, compound dose response in presence of fixed concentration of GLP-1(9-36).
T1 construct: host or cells: CRE-bla CHO-K1
T1 sequence (P43220 24-463): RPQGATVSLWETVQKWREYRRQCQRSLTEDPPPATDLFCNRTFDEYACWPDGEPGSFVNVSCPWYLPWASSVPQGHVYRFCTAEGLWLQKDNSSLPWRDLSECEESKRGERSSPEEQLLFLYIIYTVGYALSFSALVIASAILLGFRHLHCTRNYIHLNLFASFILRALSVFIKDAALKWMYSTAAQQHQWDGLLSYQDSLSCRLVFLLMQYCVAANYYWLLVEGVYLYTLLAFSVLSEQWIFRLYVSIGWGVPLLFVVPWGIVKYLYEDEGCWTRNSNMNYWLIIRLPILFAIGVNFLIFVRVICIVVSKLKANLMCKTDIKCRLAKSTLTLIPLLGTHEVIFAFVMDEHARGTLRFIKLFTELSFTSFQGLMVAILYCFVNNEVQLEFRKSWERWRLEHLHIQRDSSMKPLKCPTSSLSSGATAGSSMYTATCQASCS
T1 sequence (P01275 100-127 partner limits assumed): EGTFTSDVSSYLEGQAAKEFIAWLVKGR
Format: cell-based
Experimental: EC20 GLP-1(9-36) PAM cAMP Assay: Dose Response of Compound in the Presence of Fixed Concentration of GLP-1 (9-36).
GLP-1R CRE-bla CHO-K1 cells cultured in growth medium (DMEM-High glucose, 10% dialyzed FBS, 0.1 mM NEAA, 25 mM Hepes, 100 U/mL penicillin/100 μg/mL streptomycin, 5 μg/mL Blasticidin, 600 μg/mL Hygromycin) were tryspsinized and plated in suspension into 384 well white flat bottom plates at 5000 cells/well in 12 μL assay buffer (Hanks Balanced Salt solution, 10 mM Hepes, 0.1% BSA, pH 7.4). A 5× compound dose response curve (12-point) was generated in assay buffer containing 1.5 mM IBMX, 12.5% DMSO. GLP-1(9-36) was diluted to 4.2 μM in assay buffer containing 1.5 mM IBMX and 12.5% DMSO. The 5× compound dose response was added (3 μL), followed by 0.5 μL of GLP-1(9-36) and cells were incubated for 30 min at 37° C. Direct detection of cAMP was carried out using DiscoveRx HitHunter cAMP kit according to manufacturer's instructions and luminescence was read using a SpectraMax M5 plate reader. Luminescence was converted to total cAMP using a cAMP standard curve and data was analyzed by non-linear regression to determine the EC50 and Emax.
GLP-1(7-36): […]-NH2. GLP-1(9-36): […]-NH2. GLP-1(7-36) was purchased from GenScript. GLP-1(9-36) was purchased from Biopeptide Co., Inc.

| SMILES | pEC50 |
| --- | --- |
| CC(C)(C)c1ccc(C(=O)N[C@@H](Cc2ccc(-c3ncc(-c4ccccc4)cn3)cc2)C(=O)O)cc1 [Compound 196] | 5.30 to 5.60 |
| COc1cccc(-c2cnc(-c3ccc(C[C@H](NC(=O)c4ccc(C(C)(C)C)cc4)C(=O)O)cc3)nc2)c1 [Compound 215] | 5.30 to 5.60 |
| CCCc1ccc(-c2nc(-c3ccc(C[C@H](NC(=O)c4ccc(C(C)(C)C)cc4)C(=O)O)cc3)no2)cc1 [Compound 46] | 5.60 to 6.10 |
| CCCCCCCOc1ccc(-c2cnc(-c3ccc(C[C@H](NC(=O)c4ccc(Cl)cc4)C(=O)O)cc3)nc2)cc1 [Compound 87] | 5.60 to 6.10 |
| CCCCCCCOc1ccc(-c2cnc(-c3ccc(C[C@H](NC(=O)c4ccc(C(C)(C)C)o4)C(=O)O)cc3)nc2)cc1 [Compound 133] | 5.60 to 6.10 |
| CN(C)c1cccc(-c2cnc(-c3ccc(C[C@H](NC(=O)c4ccc(C(C)(C)C)cc4)C(=O)O)cc3)nc2)c1 [Compound 202] | 5.00 to 5.30 |
| CC(C)c1ccc(-c2cnc(-c3ccc(C[C@H](NC(=O)c4ccc(C(C)(C)C)cc4)C(=O)O)cc3)nc2)cc1 [Compound 195] | 5.60 to 6.10 |
| COc1ccc(-c2cnc(-c3ccc(C[C@H](NC(=O)c4ccc(C(C)(C)C)cc4)C(=O)O)cc3)nc2)cc1OC [Compound 214] | 5.30 to 5.60 |
| CC(C)(C)c1ccc(-c2cnc(-c3ccc(C[C@H](NC(=O)c4ccc(O)cc4)C(=O)O)cc3)nc2)cc1 [Compound 175] | > 6.10 |
| COc1ccc(-c2ccc(-c3nc(-c4ccc(C[C@H](NC(=O)c5ccc(C(C)(C)C)cc5)C(=O)O)cc4)no3)cc2)cc1OC [Compound 30] | 5.60 to 6.10 |
| CCCCCCCOc1ccc(-c2cnc(-c3ccc(C[C@H](NC(=O)c4cc5cccnc5s4)C(=O)O)cc3)nc2)cc1 [Compound 158] | > 6.10 |
| CCCCCCCOc1ccc(-c2cnc(-c3ccc(C[C@H](NC(=O)c4ccc(CC(C)C)s4)C(=O)O)cc3)nc2)cc1 [Compound 153] | 5.60 to 6.10 |
| CCCCCCCOc1ccc(-c2cnc(-c3ccc(C[C@H](NC(=O)c4ccc(C(C)C)s4)C(=O)O)cc3)nc2)cc1 [Compound 152] | 5.60 to 6.10 |
| CCCCCCCOc1ccc(-c2noc(-c3ccc(C[C@H](NC(=O)c4ccc(C(C)(C)C)cc4)C(=O)O)cc3)n2)cc1 [Compound 1, (S)-2-(4-(tert-butyl)benzamido)-3-(4-(3-(4-(heptyloxy)phenyl)-1,2,4-oxadiazol-5-yl)phenyl)propanoic acid] | 5.60 to 6.10 |
| CCCCCCCOc1ccc(-c2cnc(-c3ccc(C[C@H](NC(=O)c4ccc(C(C)=O)cc4)C(=O)O)cc3)nc2)cc1 [Compound 113] | 5.60 to 6.10 |
| CC(=O)c1ccc(-c2nc(-c3ccc(C[C@H](NC(=O)c4ccc(C(C)(C)C)cc4)C(=O)O)cc3)no2)cc1 [Compound 45] | 5.60 to 6.10 |
| CC(C)S(=O)(=O)c1ccc(C(=O)N[C@@H](Cc2ccc(-c3ncc(-c4ccc(C(C)(C)C)cc4)cn3)cc2)C(=O)O)cc1 [Compound 181] | 5.60 to 6.10 |
| CC(C)(C)c1ccc(C(=O)N[C@H](CC(=O)O)Cc2ccc(-c3noc(-c4ccc(N5CCCCC5)cc4)n3)cc2)cc1 [Compound 75] | 5.30 to 5.60 |
| CC(C)(C)c1ccc(-c2cnc(-c3ccc(C[C@H](NC(=O)c4ccc(C(F)(F)F)cc4)C(=O)O)cc3)nc2)cc1 [Compound 174] | > 6.10 |
| CCCCCCCOc1ccc(-c2coc(-c3ccc(C[C@H](NC(=O)c4ccc(C(C)(C)C)cc4)C(=O)O)cc3)n2)cc1 [Compound 77] | 5.60 to 6.10 |
| CCCCCCCOc1ccc(-c2cnc(-c3ccc(C[C@H](NC(=O)c4ccc(CC(C)(C)C)cc4)C(=O)O)cc3)nc2)cc1 [Compound 112] | 5.60 to 6.10 |
| CCCCCCCOc1ccc(-c2nc(-c3ccc(C(NC(=O)c4ccc(C(C)(C)C)cc4)C(=O)O)cc3)no2)cc1 (stereo not drawn) [Compound 71] | 5.30 to 5.60 |
| CCCCCCCOc1ccc(-c2cnc(-c3ccc(C[C@H](NC(=O)c4ccc(OC)cc4)C(=O)O)cc3)nc2)cc1 [Compound 86] | 5.60 to 6.10 |
| CC(C)(C)c1ccc(-c2cnc(-c3ccc(C[C@H](NC(=O)c4cnn(C(C)(C)C)c4)C(=O)O)cc3)nc2)cc1 [Compound 178] | 5.60 to 6.10 |
| CCCCCCCOc1ccc(-c2cnc(-c3ccc(C[C@H](NC(=O)c4ccc(OC)c(C)c4)C(=O)O)cc3)nc2)cc1 [Compound 118] | > 6.10 |
| CCCCCCCOc1ccc(-c2cnc(-c3ccc(C[C@H](NC(=O)c4ccc(OCC(C)C)cc4)C(=O)O)cc3)nc2)cc1 [Compound 121] | 5.60 to 6.10 |
| CCCCCCCOc1ccc(-c2cnc(-c3ccc(C[C@H](NC(=O)c4ccccc4C)C(=O)O)cc3)nc2)cc1 [Compound 119] | > 6.10 |
| CC(C)(C)c1ccc(C(=O)N[C@@H](Cc2ccc(-c3ncc(-c4cccc(C(F)(F)F)c4)cn3)cc2)C(=O)O)cc1 [Compound 210] | 5.30 to 5.60 |

The next lines start with the values.

| pEC50 | SMILES |
| --- | --- |
| > 6.10 | CCCCCCCOc1ccc(-c2ccc(-c3ccc(C[C@H](NC(=O)c4ccc(C(C)(C)C)s4)C(=O)O)cc3)nc2)cc1 [Compound 277] |
| > 6.10 | CCCCCCCOc1ccc(-c2cnc(-c3ccc(C[C@H](NC(=O)c4ccc(C(C)(C)C)cc4)C(=O)NS(C)(=O)=O)cc3)nc2)cc1 [Compound 299, (S)-4-(tert-butyl)-N-(3-(4 (5 (4 (heptyloxy)phenyl)pyrimidin-2-yl)phenyl)-1-(methylsulfonamido)-1-oxopropan-2-yl)benzamide] |
| 5.60 to 6.10 | CCCCCCCOc1ccc(-c2ncc(-c3ccc(C[C@H](NC(=O)c4ccc(C(C)(C)C)cc4)C(=O)O)cc3)cn2)cc1 [Compound 271] |
| 5.00 to 5.30 | CCCCCCCCCCCCCCOc1ccc(-c2cnc(-c3ccc(C[C@H](NC(=O)c4ccc(C(C)(C)C)s4)C(=O)O)cc3)nc2)cc1 [Compound 251] |
| 5.60 to 6.10 | C[C@@H](NC(=O)[C@H](Cc1ccc(-c2ncc(-c3ccc(C(C)(C)C)cc3)cn2)cc1)NC(=O)c1ccc(C(C)(C)C)s1)C(=O)O [Compound 357] |
| 5.60 to 6.10 | CCCCCCOc1ccc(-c2cnc(-c3ccc(C[C@H](NC(=O)c4ccc(C(C)(C)C)s4)C(=O)O)cc3)nc2)cc1 [Compound 239] |
| 5.30 to 5.60 | CCCCCCCOc1ccc(-c2cnc(-c3ccc(C[C@H](NC(=O)c4ccc(C(C)(C)C)cc4)C(=O)N(C)CCC(=O)O)cc3)nc2)cc1 [Compound 302] |
| 5.60 to 6.10 | CCCCCCCOc1ccc(-c2ccc(-c3ccc(C[C@H](NC(=O)c4ccc(C(C)(C)C)cc4)C(=O)O)cc3)nc2)cc1 [Compound 269] |
| 5.60 to 6.10 | CCCc1ccc(-c2cnc(-c3ccc(C[C@H](NC(=O)c4ccc(C(C)(C)C)cc4)C(=O)O)cc3)nc2)cc1 [Compound 228] |
| 5.60 to 6.10 | CCCCCCCOc1cccc(-c2cnc(-c3ccc(C[C@H](NC(=O)c4ccc(C(C)(C)C)cc4)C(=O)O)cc3)nc2)c1 [Compound 219] |
| > 6.10 | CCCCCCCOc1ccc(-c2cnc(-c3ccc(C[C@H](NC(=O)c4ccc(C(C)(C)C)s4)C(=O)N[C@H](C)CC(=O)O)cc3)nc2)cc1 [Compound 345] |
| 5.60 to 6.10 | CCCCCCCOc1ccc(-c2cnc(-c3ccc(C[C@H](NC(=O)c4ccc(C(C)(C)C)s4)C(=O)N4CCC[C@H]4C(=O)O)cc3)nc2)cc1 [Compound 328] |
| 5.60 to 6.10 | CCCCCCCOc1ccc(-c2cnc(-c3ccc(C[C@H](NC(=O)c4ccc(C(C)C)cc4)C(=O)N[C@H](CO)C(=O)O)cc3)nc2)cc1 [Compound 315] |
| 5.30 to 5.60 | Cc1ccc(-c2ccc(-n3cc(-c4ccc(C[C@H](NC(=O)c5ccc(C(C)(C)C)cc5)C(=O)O)cc4)cn3)cc2)cc1 [Compound 288, (S)-2-(4-(tert-butyl)benzamido)-3-(4-(1-(4′-methyl-[1,1′-biphenyl]-4-yl)-1H-pyrazol-4-yl)phenyl)propanoic acid] |
| > 6.10 | CCCCCCCOc1ccc(-c2cnc(-c3ccc(C[C@@H](NC(=O)c4ccc(C(C)(C)C)s4)C(=O)N[C@H](C)C(=O)O)cc3)nc2)cc1 [Compound 375] |
| 5.60 to 6.10 | CC(C)(C)c1ccc(-c2cnc(-c3ccc(C[C@H](NC(=O)c4ccc(C(C)(C)C)s4)C(=O)N[C@H](CC(=O)O)C(=O)O)cc3)nc2)cc1 [Compound 355] |
| 5.00 to 5.30 | CCCCCCCOc1ccc(C2CCN(c3ccc(C[C@H](NC(=O)c4ccc(C(C)(C)C)cc4)C(=O)O)cc3)C2)cc1 (stereo partly drawn) [Compound 265] |
| > 6.10 | CCCCCCCOc1ccc(-c2cnc(-c3ccc(C[C@H](NC(=O)c4ccc(C(C)C)cc4)C(=O)N[C@@H](CC(N)=O)C(=O)O)cc3)nc2)cc1 [Compound 306] |
| > 6.10 | CCCCCCCOc1ccc(-c2cnc(-c3ccc(C[C@H](NC(=O)c4ccc(C(C)(C)C)s4)C(=O)N[C@H](CO)C(=O)O)cc3)nc2)cc1 [Compound 323] |
| 5.60 to 6.10 | CC(C)(C)c1ccc(-c2cnc(-c3ccc(C[C@H](NC(=O)c4ccc(C(C)(C)C)s4)C(=O)N[C@H](CCC(N)=O)C(=O)O)cc3)nc2)cc1 [Compound 353] |
| 5.30 to 5.60 | CC(C)(C)c1ccc(-c2cnc(-c3ccc(C[C@H](NC(=O)c4ccc(C(C)(C)C)s4)C(=O)N4CCC[C@H]4C(=O)O)cc3)nc2)cc1 [Compound 362] |
| 5.60 to 6.10 | CC(C)(C)c1ccc(-c2cnc(-c3ccc(C[C@H](NC(=O)c4ccc(C(C)(C)C)s4)C(=O)N[C@H](CCC(=O)O)C(=O)O)cc3)nc2)cc1 [Compound 359] |
| 5.30 to 5.60 | CCCCCCCOc1ccc(N2CCN(c3ccc(C[C@H](NC(=O)c4ccc(C(C)(C)C)s4)C(=O)O)cc3)C2=O)cc1 [Compound 262] |
